For data set [1] the following is noted: absorption limited to the distal small bowel; cited from earlier work.
The nature of data set [2]: Pharmacokinetic evaluation of memantine with sodium hydroxide, menthol and optionally NH4Cl in male beagle dogs (Example 2). Particulars: 0.4 mg/kg, Route Oral. It counts as in vivo. As to the method: The pharmacokinetics of memantine were evaluated after buccal administration in male beagle dogs. Memantine was formulated in water, 3.3 mg/mL sodium hydroxide in water, or 7.5 mg/mL sodium carbonate in water. All dogs received a 0.4 mg/kg dose of memantine. Plasma levels of memantine were determined by LC-MS/MS. Pharmacokinetic parameters were determined for the memantine plasma data.
For dosing, dogs were anesthetized with an IV injection of ketamine/diazepam, and maintained by isoflurane intubation during the buccal administration. The dosing solution was pipetted into a circular cylinder to concentrate the dosing solution on one area of the mucosa. At just prior to the 15 minute sample time point, the oral cavity was rinsed with 5 mL of water and dried with gauze. Immediately after the rinse, the 15 minute sample was collected.
The pharmacokinetics of memantine were evaluated after buccal administration in male beagle dogs using procedures similar to those used in Example 1, except that menthol or menthol and ammonium chloride where co-administered with the sodium hydroxide (Table 2). Table 2 provides a summary of pharmacokinetic findings, comparing memantine compositions containing an alkalinizing agent to increase local pH and a permeation enhancer (menthol), and optionally a urinary acidifying agent. […] Further addition of a urinary acidifying agent (e.g., NH4Cl) further reduces T1/2, indicating more rapid elimination of memantine.

The test system of another data set is Caco-2 cells. In words: Memantine in vitro intestinal permeability (Caco-2 cells). Type of data set: in vitro ADME.
Data set [3] can be described thus: Memantine ex vivo buccal permeability (porcine buccal mucosa). It counts as in vitro ADME.
For data set [4] the following is noted: cited from earlier work.
In data set [5] the test system is citric acid-induced cough. Put plainly: Citric acid-induced cough in guinea pigs, oral memantine vs vehicle. It counts as in vivo. Particulars: oral administration, dose response (FIG. 2).
A short description of data set [6]: Stability of memantine in alkaline conditions, solution and lozenge (Example 5). It counts as physicochemical. As to the method:
The stability of memantine is studied within a pH range in both solution and in a lozenge dosage form. It is determined that when memantine is included in a buffer solution at a pH 8.0 or higher, memantine degrades and/or precipitates out of solution. It is determined that in a solution with a pH of 8.0, only about 85.3 percent of memantine is recovered; in a solution with a pH of 9.0, only about 29.8 percent of memantine is recovered; and in a solution with a pH of 10.0, only about 0.7 percent of memantine is recovered. In a solution with a pH of 1.0, it is determined that 97.6 percent of memantine is recovered and thus memantine is determined to be stable. It is also determined that memantine is unstable in a lozenge dosage form when it is in contact with an alkalinizing agent. It is determined that when memantine and sodium hydroxide are added together in a lozenge dosage form, only about 40% to about 60% memantine is recovered, with the remaining memantine degrading and/or precipitating out during the lozenge preparation process. It is determined that when memantine and sodium carbonate are added together in a lozenge dosage form, only about 40% to about 60% memantine is recovered, with the remaining memantine degrading and/or precipitating out during the lozenge preparation process.

With `CC12CC3CC(C)(C1)CC(N)(C3)C2` [memantine, 3,5-dimethyl-1-adamantanamine], the “time to maximum plasma concentration (Tmax)” value in data set [1] is 4 to 7 h. In data set [2] (3.3 mg/ml sodium hydroxide + 5 mg/ml menthol), the “AUC0-∞” value amounted to 126 ng·h/mL. For the same compound, the Cmax/Dose in data set [2] (3.3 mg/ml sodium hydroxide + 5 mg/ml menthol + 20 mg/kg NH4Cl) worked out at 26.03. The AUC0-t in data set [2] (Control) was 120 ng·h/mL. The “permeability of memantine in Caco-2 cells” value in the data set on Caco-2 cells (increase in pH from pH 5.0 to 10.5 (FIG. 3)) is “gradually increases”. The “increase in permeability of memantine in porcine buccal mucosa” value was “over 100 fold” in data set [3] (increase in pH from 5.5 to 9.0 (FIG. 4)) and “about 3.8 fold” in data set [3] (increase in pH from 8.0 to 9.0 (FIG. 5)). For the same compound, in data set [4], the “dissociation constant (pKa)” value is listed as approximately 10. In data set [5], the “efficacy on citric acid-induced cough relative to vehicle control” value is recorded as “dose-dependent antitussive effects”. In addition, the memantine recovered in data set [6] (solution with a pH of 1.0) is recorded as 97.6%; in data set [6] (solution with a pH of 8.0), “about 85.3%”; in data set [6] (solution with a pH of 9.0), “about 29.8%”; in data set [6] (solution with a pH of 10.0), “about 0.7%”.
As to polysorbate 80, the “effect as permeation enhancer on memantine Caco-2 permeability” value in the data set with Caco-2 cells (FIG. 6) is reported as “ineffective”.

The values above are taken from US20130274342A1, “COMPOSITIONS AND METHODS FOR TREATING COUGH” (Cerecor, Inc., priority 2012, published 2013).
